{"source": "patent US20250136581A1", "about": "“SUBSTITUTED TRIAZOLE DERIVATIVE, PREPARATION METHOD THEREFOR, PHARMACEUTICAL COMPOSITION THEREOF, AND USE THEREOF” (SHANGHAI SIMR BIOTECHNOLOGY CO., LTD., priority 2021, published 2025)", "key": {"human α3β3γ2 receptors": {"target": "human α3β3γ2 receptors (Homo sapiens (Human), UniProt P18507+P34903)", "test": "3H-flunitrazepam competition binding, human α3β3γ2 GABAA receptor", "details": "HEK293 cell membranes, 1 nM 3H-flunitrazepam; read-out: Ki α3", "method_in_brief": "(§1)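 Radioligand displacement of 1 nM 3H-flunitrazepam from membranes of HEK293 lines stably expressing the human subtypes, 1 h at room temperature, compound in 8-point 4-fold series. Bound label on GF/C filters counted by scintillation; Ki derived from fitted IC50, with flumazenil as low control.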"}, "[1]": {"target": "α5-GABAA receptor (α5, β3, γ2 subunits) (Homo sapiens (Human), UniProt P18507+P31644)", "test": "Whole cell patch clamp, inverse agonist efficacy in HEK293 cells expressing α5-GABAA receptor", "format": "cell-based", "details": "HEK293, drug 100 nM, GABA 0.05 μM, −60 mV; read-out: Compound inverse agonist efficacy %", "method_in_brief": "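Compounds screened at 100 nM against current induced by 0.05 μM GABA in monoclonal HEK293 cells stably expressing α5β3γ2 GABAA receptors. Recording by whole-cell voltage clamp (−60 mV, pH 7.4 bath, CsCl pipette); efficacy calculated from leak-corrected currents before and after drug.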"}, "human α2β3γ2 receptors": {"target": "human α2β3γ2 receptors (Homo sapiens (Human), UniProt P18507+P47869)", "test": "3H-flunitrazepam competition binding, human α2β3γ2 GABAA receptor", "details": "HEK293 cell membranes, 1 nM 3H-flunitrazepam; read-out: Ki α2", "method_in_brief": "as §1"}}}
{"smiles": "Cc1nnn(-c2ccc(C(F)F)cc2)c1COc1ccc(N2CC(=O)NC(C)C2)nn1", "note": "(stereo not drawn) [Example 6, 4-(6-((1-(4-(Difluoromethyl)phenyl)-4-methyl-1H-1,2,3-triazol-5-yl)methoxy)pyridazin-3-yl)-6-methylpiperazin-2-one]", "values": [{"measurement": "Ki", "setting": "human α3β3γ2 receptors", "result": 14.1, "unit": "nM"}, {"measurement": "inhibition at 0.1 µM", "setting": "[1]", "result": 42.5, "unit": "%"}, {"measurement": "Ki", "setting": "human α2β3γ2 receptors", "result": 15.9, "unit": "nM"}]}
